# Reference: patent EP0930296A1, “FLUORINATED PROSTAGLANDIN DERIVATIVES AND MEDICINES” (ASAHI GLASS COMPANY LTD., priority 1996, dated 1998)
# How the values were obtained:
# crab-eating macaques = assay: Effects on intraocular pressure (air-puff applanation tonometer, ketamine anesthesia); assay type: in vivo; conditions: for Change in ocular pressure after application: average of 8 subjects, relative to initial intraocular pressure
# Method: The effect of a compound of the present invention on intraocular pressure was studied in accordance with the method disclosed in a report of a study on the effect of the tromethamine salt and the isopropyl ester of PGF2α on intraocular pressure in crab-eating macaques (Exp. Eye Res., 61, 677-683 (1995)).
# Male crab-eating macaques weighing from 5 to 7.5 kg (5-10 years old) were used in the test. The intraocular pressures were measured just before and 2, 4 and 6 hours after application of the test compound under ketamine anesthasia (5-10 mg/kg, intramuscular administration) by means of an air-puff applanation tonometer.
# The results of application of 0.1% (w/v) ophthalmic solution containing Latanoprost (reference pharmaceutical 1), which is known as a therapeutic agent for glaucoma are also shown in Table 1.
# Japanese white rabbits = assay: Test on eye irritations: conditions of the front of the eye, scores by improved Draize method; assay type: in vivo; conditions: for scored in total, as much as Latanoprost did: ratio of total scores, Table 2 to Table 3; for Condition of nictitating membrane / Edema of eyelid conjunctiva / Iridial congestion / Opacity of the cornea / Opaque fraction of the cornea / Rubor of eyelid conjunctiva / Rubor of supraocular conjunctiva / Secretions / Total score: ten times at 30 minute intervals; for Total score: sum of the scores
# Method: The eye irritation caused by a compound of the present invention was investigated in accordance with the method of Fukui et al. ("[…]-no-rinsho", 4277-89 (1970)). Male Japanese white rabbits weighing about 2.5 kg were used in the test. A test compound was applied into the conjunctival sac of a right eye ten times at 30 minute intervals. The conditions of the front and the anterior chamber of the eye were observed just before and 1, 2 and 4 hours after the final application, and the damage to the cornea was observed 4 hours after the final application. Into the conjunctival sac of a left eye, the base only, which was free from the test compound, was applied. A) Conditions of the front of the eye: Scores were determined on the basis of the following scale of damage to the eye according to the improved Draize method. • a) Opacity • No cloud (normal); 0 • Scattered clouds in pervasive regions (the details of the iris are clearly visible); 1 • Easily distinguishable translucent regions (details of the iris are not visible so clearly); 2 • Opaque regions, details of the iris are invisible, and the size of the pupil is barely recognizable; 3 • Unclear, the iris is invisible; 4 • b) The size of the region of the cornea falling into the above • None; 0 • More than 0 and not more than 1/4; 1 • More than 1/4 and less than 1/2; 2 • More than 1/2 and less than 3/4; 3 • More than 3/4 and all over; 4 • Normal; 0 • More […], stasis, swelling, congestion around the cornea than normal (any or combinations of them), the iris is still responsive to light (positive for slow reaction); 1 • Irresponsible to light, and bleeding and apparent destruction (any or all of them); 2 • a) Rubor of the eyelid conjunctiva • No congestion; 0 • Slightly reddish mucosae and slight but recognizable vasodilation of the edge of the eyelid; 0.5 • Clearly abnormal congestion, appreciably red mucosae and remarkable swelling; 1 • Pretty remarkably red ocular mucosae and slightly unclear peripheral vessels; 2 • More intense conditions than 2 and pervasive beef-like rubor; 3 • b) Edema of the eyelid conjunctiva • Not swollen; 0 • Slight tendency of edema; 0.5 • More swollen than normal; 1 • Apparently swollen together with part of the integument of the eyelid; 2 • Swollen with about half of the eyelid sagging; 3 • Swollen with about half to all of the eyelid sagging; 4 • c) Rubor of the supraocular conjunctiva • No congestion; 0 • Slight vasodilation around the cornea; 0.5 • More remarkable vasodilation; 1 • Remarkable vasodilation toward the edge of the eyelid or remarkable rubor; 2 • d) Condition of the nictitating membrane • No congestion; 0 • Recognizable vasodilation and tendency of edema; 0.5 • More appreciable vasodilation and rubor of the edge of the eyelid; 1 • Extreme vasodilation and remarkable rubor of the entire nictitating membrane; 2 • e) Secretions • No secretions; 0 • A certain amount more than normal (exclusive of small amount of secretions found at the medial angle of the eye of a normal animal); 1 • Some secretions with a wet eyelid and neighboring fur; 2 • Some secretions with a wet eyelid and a large area of wet fur around the eye; 3 • B) Conditions of the anterior chamber: After the observation of the front of the eye, the inside of the anterior chamber was checked for flares under a slit lamp. • C) Damage to the cornea: After observation of the conditions of the front and anterior chamber of the eye 4 hours after the final application, the cornea was stained with fluorescein, and the remaining dye on the cornea was observed under a slit lamp. […] Further, to comprehensively evaluate damage to the front of the eye, the sum of the scores was calculated as a total score.
# [1] = system: smooth muscle in the respiratory system; conditions: Izv. Akad. Nauk SSSR, Ser. Biol., 6, 831 (1989); cited from earlier work
# [2] = system: smooth muscle in the digestive and circulatory systems; conditions: Izv. Akad. Nauk SSSR, Ser. Biol., 6, 831 (1989); cited from earlier work
# [3] = 2 hours, 20 µℓ of 0.1% (w/v) ophthalmic solution
# [4] = 4 hours, 20 µℓ of 0.1% (w/v) ophthalmic solution
# [5] = 6 hours, 20 µℓ of 0.1% (w/v) ophthalmic solution
# [6] = After 1 hr, 0.01% (w/v) ophthalmic solution (pharmaceutical 3), 50 µℓ, average of three subjects
# [7] = After 2 hrs, 0.01% (w/v) ophthalmic solution (pharmaceutical 3), 50 µℓ, average of three subjects
# [8] = After 4 hrs, 0.01% (w/v) ophthalmic solution (pharmaceutical 3), 50 µℓ, average of three subjects
# [9] = After 1 hr, 0.1% (w/v) ophthalmic solution (reference pharmaceutical 1)
# [10] = After 2 hrs, 0.1% (w/v) ophthalmic solution (reference pharmaceutical 1)
# [11] = After 4 hrs, 0.1% (w/v) ophthalmic solution (reference pharmaceutical 1)
smiles,measurement,setting,value
"CC(C)OC(=O)CCC/C=C\C[C@@H]1[C@@H](/C=C/C(F)COc2cc(Cl)cc(Cl)c2)[C@H](O)C[C@@H]1O (single isomer, unassigned) [Compound A, 16-(3,5-dichlorophenoxy)-15-deoxy-15-fluoro-17,18,19,20-tetranorprostaglandin F2α isopropyl ester]",Change in ocular pressure after application,"crab-eating macaques; 2 hours, 20 µℓ of 0.01% (w/v) ophthalmic solution",-0.8 mmHg
same,Change in ocular pressure after application,crab-eating macaques; [3],-1.0 mmHg
same,Change in ocular pressure after application,"crab-eating macaques; 4 hours, 20 µℓ of 0.01% (w/v) ophthalmic solution",-1.8 mmHg
same,Change in ocular pressure after application,crab-eating macaques; [4],-1.4 mmHg
same,"lowered the intraocular pressure, times as much as Latanoprost",crab-eating macaques; 6 hours after application,about 1.5 times
same,Change in ocular pressure after application,"crab-eating macaques; 6 hours, 20 µℓ of 0.01% (w/v) ophthalmic solution",-3.0 mmHg
same,Change in ocular pressure after application,crab-eating macaques; [5],-3.6 mmHg
same,"scored in total, as much as Latanoprost did",Japanese white rabbits; 1 hour after application,about 1/5
same,"scored in total, as much as Latanoprost did",Japanese white rabbits; 2 hours after application,1/2
same,"scored in total, as much as Latanoprost did",Japanese white rabbits; 4 hours after application,1/3
same,Condition of nictitating membrane,Japanese white rabbits; [6],0.2
same,Edema of eyelid conjunctiva,Japanese white rabbits; [6],0
same,Iridial congestion,Japanese white rabbits; [6],0
same,Opacity of the cornea,Japanese white rabbits; [6],0
same,Opaque fraction of the cornea,Japanese white rabbits; [6],0
same,Rubor of eyelid conjunctiva,Japanese white rabbits; [6],0
same,Rubor of supraocular conjunctiva,Japanese white rabbits; [6],0.2
same,Secretions,Japanese white rabbits; [6],0
same,Condition of nictitating membrane,Japanese white rabbits; [7],0.2
same,Edema of eyelid conjunctiva,Japanese white rabbits; [7],0
same,Iridial congestion,Japanese white rabbits; [7],0
same,Opacity of the cornea,Japanese white rabbits; [7],0
same,Opaque fraction of the cornea,Japanese white rabbits; [7],0
same,Rubor of eyelid conjunctiva,Japanese white rabbits; [7],0.2
same,Rubor of supraocular conjunctiva,Japanese white rabbits; [7],0.5
same,Secretions,Japanese white rabbits; [7],0
same,Condition of nictitating membrane,Japanese white rabbits; [8],0
same,Edema of eyelid conjunctiva,Japanese white rabbits; [8],0
same,Iridial congestion,Japanese white rabbits; [8],0
same,Opacity of the cornea,Japanese white rabbits; [8],0
same,Opaque fraction of the cornea,Japanese white rabbits; [8],0
same,Rubor of eyelid conjunctiva,Japanese white rabbits; [8],0
same,Rubor of supraocular conjunctiva,Japanese white rabbits; [8],0.2
same,Secretions,Japanese white rabbits; [8],0
same,Total score,"Japanese white rabbits; After 1 hr, 0.01% (w/v) ophthalmic solution (pharmaceutical 3), 50 µℓ",0.4
same,Total score,"Japanese white rabbits; After 2 hrs, 0.01% (w/v) ophthalmic solution (pharmaceutical 3), 50 µℓ",0.9
same,Total score,"Japanese white rabbits; After 4 hrs, 0.01% (w/v) ophthalmic solution (pharmaceutical 3), 50 µℓ",0.2
same,irritation of the front of the eye,"Japanese white rabbits; when applied to the eye, slight congestion of the conjunctiva was observed",little irritant
"CC(C)OC(=O)CCC/C=C\C[C@@H]1[C@@H](CC[C@@H](O)CCc2ccccc2)[C@H](O)C[C@@H]1O [Latanoprost, 13,14-dihydro-17-phenyl-18,19,20-trinor PGF2α isopropyl ester, reference compound]",Change in ocular pressure after application,crab-eating macaques; [3],-0.6 mmHg
same,Change in ocular pressure after application,crab-eating macaques; [4],-2.6 mmHg
same,Change in ocular pressure after application,crab-eating macaques; [5],-2.3 mmHg
same,Condition of nictitating membrane,Japanese white rabbits; [9],0.3
same,Edema of eyelid conjunctiva,Japanese white rabbits; [9],0
same,Iridial congestion,Japanese white rabbits; [9],0
same,Opacity of the cornea,Japanese white rabbits; [9],0
same,Opaque fraction of the cornea,Japanese white rabbits; [9],0
same,Rubor of eyelid conjunctiva,Japanese white rabbits; [9],0.5
same,Rubor of supraocular conjunctiva,Japanese white rabbits; [9],0.8
same,Secretions,Japanese white rabbits; [9],0.3
same,Condition of nictitating membrane,Japanese white rabbits; [10],0.3
same,Edema of eyelid conjunctiva,Japanese white rabbits; [10],0
same,Iridial congestion,Japanese white rabbits; [10],0
same,Opacity of the cornea,Japanese white rabbits; [10],0
same,Opaque fraction of the cornea,Japanese white rabbits; [10],0
same,Rubor of eyelid conjunctiva,Japanese white rabbits; [10],0.5
same,Rubor of supraocular conjunctiva,Japanese white rabbits; [10],0.8
same,Secretions,Japanese white rabbits; [10],0
same,Condition of nictitating membrane,Japanese white rabbits; [11],0.3
same,Edema of eyelid conjunctiva,Japanese white rabbits; [11],0
same,Iridial congestion,Japanese white rabbits; [11],0
same,Opacity of the cornea,Japanese white rabbits; [11],0
same,Opaque fraction of the cornea,Japanese white rabbits; [11],0
same,Rubor of eyelid conjunctiva,Japanese white rabbits; [11],0
same,Rubor of supraocular conjunctiva,Japanese white rabbits; [11],0.3
same,Secretions,Japanese white rabbits; [11],0
same,Total score,Japanese white rabbits; [9],1.9
same,Total score,Japanese white rabbits; [10],1.6
same,Total score,Japanese white rabbits; [11],0.6
"CCCCCC(F)/C=C/[C@@H]1[C@@H](C/C=C\CCCC(=O)O)[C@@H](O)C[C@H]1O (stereo partly drawn) [15-Fluoro-15-deoxy PGF2α, 15-fluoro-15-deoxy PGF2α]",contraction action on smooth muscle in the respiratory system as compared with the naturally occurring PGF2α,[1],100 fold
same,relaxation action on smooth muscle in the respiratory system as compared with the naturally occurring PGF2α,[1],1000 fold
same,action on the smooth muscle in the digestive and circulatory systems relative to the naturally occurring PGF2α,[2],comparable
